Assays:
Assay in all cases: IC50 for competition of protein binding to Kinobeads
Conditions in all cases: assay detail: Kinobeads competition in P. falciparum blood-stage lysate
UniProt C6KSV4 = molecular target: UniProt C6KSV4
UniProt C6KSX2 = molecular target: UniProt C6KSX2
UniProt C6KSY6 = molecular target: UniProt C6KSY6
UniProt C6KT34 = molecular target: UniProt C6KT34
UniProt C6KT56 = molecular target: UniProt C6KT56
UniProt O77375 = molecular target: UniProt O77375
UniProt O96203 = molecular target: UniProt O96203
UniProt O96221 = molecular target: UniProt O96221
UniProt O97240 = molecular target: UniProt O97240
Chain of UniProt O97240 (O97240 whole entry): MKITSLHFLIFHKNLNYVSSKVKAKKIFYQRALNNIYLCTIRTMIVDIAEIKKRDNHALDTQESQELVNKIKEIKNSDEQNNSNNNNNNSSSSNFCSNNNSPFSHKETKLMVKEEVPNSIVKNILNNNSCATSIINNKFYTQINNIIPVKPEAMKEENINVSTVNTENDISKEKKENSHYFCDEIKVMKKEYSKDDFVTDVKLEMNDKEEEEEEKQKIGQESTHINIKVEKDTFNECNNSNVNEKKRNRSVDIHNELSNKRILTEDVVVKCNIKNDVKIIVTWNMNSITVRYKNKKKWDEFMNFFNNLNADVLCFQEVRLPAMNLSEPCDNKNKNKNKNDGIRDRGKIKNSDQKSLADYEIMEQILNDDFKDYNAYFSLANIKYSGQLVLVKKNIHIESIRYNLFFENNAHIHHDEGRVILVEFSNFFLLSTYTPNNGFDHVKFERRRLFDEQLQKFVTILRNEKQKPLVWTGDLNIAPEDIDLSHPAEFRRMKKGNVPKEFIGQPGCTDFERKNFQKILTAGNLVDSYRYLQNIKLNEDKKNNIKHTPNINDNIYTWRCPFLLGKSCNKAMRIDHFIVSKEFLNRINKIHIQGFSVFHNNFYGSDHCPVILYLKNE

UniProt O97266 = molecular target: UniProt O97266
UniProt O97284 = molecular target: UniProt O97284
UniProt P61074 = molecular target: UniProt P61074
Chain of UniProt P61074 (P61074 whole entry): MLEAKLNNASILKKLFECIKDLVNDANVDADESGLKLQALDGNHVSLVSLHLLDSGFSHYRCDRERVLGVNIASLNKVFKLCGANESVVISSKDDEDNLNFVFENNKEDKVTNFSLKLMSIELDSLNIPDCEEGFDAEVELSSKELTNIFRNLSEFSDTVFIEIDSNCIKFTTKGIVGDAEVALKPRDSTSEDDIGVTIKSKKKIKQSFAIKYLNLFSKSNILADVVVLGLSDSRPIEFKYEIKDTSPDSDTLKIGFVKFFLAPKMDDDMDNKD

UniProt Q7KQM0 = molecular target: UniProt Q7KQM0
Chain of UniProt Q7KQM0 (Q7KQM0 whole entry): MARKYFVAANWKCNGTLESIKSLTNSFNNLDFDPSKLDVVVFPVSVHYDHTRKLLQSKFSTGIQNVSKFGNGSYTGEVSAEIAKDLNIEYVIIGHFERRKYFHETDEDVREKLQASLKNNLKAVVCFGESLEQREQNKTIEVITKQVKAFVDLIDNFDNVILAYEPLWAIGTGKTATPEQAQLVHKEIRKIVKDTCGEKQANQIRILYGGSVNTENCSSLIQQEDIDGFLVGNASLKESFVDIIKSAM

UniProt Q8I1S0 = molecular target: UniProt Q8I1S0
UniProt Q8I1X5 = molecular target: UniProt Q8I1X5
UniProt Q8I231 = molecular target: UniProt Q8I231
UniProt Q8I2F2 = molecular target: UniProt Q8I2F2
UniProt Q8I2I8 = molecular target: UniProt Q8I2I8
UniProt Q8I388 = molecular target: UniProt Q8I388
UniProt Q8I3F0 = molecular target: UniProt Q8I3F0
UniProt Q8I3I6 = molecular target: UniProt Q8I3I6
UniProt Q8I3Z5 = molecular target: UniProt Q8I3Z5
Chain of UniProt Q8I3Z5 (Q8I3Z5 whole entry): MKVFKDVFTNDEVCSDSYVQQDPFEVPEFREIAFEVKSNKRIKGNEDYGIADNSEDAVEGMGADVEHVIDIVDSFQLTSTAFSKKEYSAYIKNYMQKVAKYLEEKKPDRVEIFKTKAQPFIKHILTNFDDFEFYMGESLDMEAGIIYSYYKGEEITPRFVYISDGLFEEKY

UniProt Q8I415 = molecular target: UniProt Q8I415
UniProt Q8I4R5 = molecular target: UniProt Q8I4R5
UniProt Q8I4V8 = molecular target: UniProt Q8I4V8
Chain of UniProt Q8I4V8 (Q8I4V8 whole entry): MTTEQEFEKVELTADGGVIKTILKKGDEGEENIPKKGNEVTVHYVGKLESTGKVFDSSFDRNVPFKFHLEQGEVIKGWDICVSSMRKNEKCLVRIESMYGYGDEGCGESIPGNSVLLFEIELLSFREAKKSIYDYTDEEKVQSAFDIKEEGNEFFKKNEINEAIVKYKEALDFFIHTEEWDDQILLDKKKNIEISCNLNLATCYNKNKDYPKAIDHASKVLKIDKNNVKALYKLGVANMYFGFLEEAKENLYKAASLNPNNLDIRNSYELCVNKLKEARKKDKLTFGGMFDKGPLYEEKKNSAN

UniProt Q8I4Z4 = molecular target: UniProt Q8I4Z4
UniProt Q8I501 = molecular target: UniProt Q8I501
UniProt Q8I5T4 = molecular target: UniProt Q8I5T4
UniProt Q8IAU3 = molecular target: UniProt Q8IAU3
UniProt Q8IBZ9 = molecular target: UniProt Q8IBZ9
Chain of UniProt Q8IBZ9 (Q8IBZ9 whole entry): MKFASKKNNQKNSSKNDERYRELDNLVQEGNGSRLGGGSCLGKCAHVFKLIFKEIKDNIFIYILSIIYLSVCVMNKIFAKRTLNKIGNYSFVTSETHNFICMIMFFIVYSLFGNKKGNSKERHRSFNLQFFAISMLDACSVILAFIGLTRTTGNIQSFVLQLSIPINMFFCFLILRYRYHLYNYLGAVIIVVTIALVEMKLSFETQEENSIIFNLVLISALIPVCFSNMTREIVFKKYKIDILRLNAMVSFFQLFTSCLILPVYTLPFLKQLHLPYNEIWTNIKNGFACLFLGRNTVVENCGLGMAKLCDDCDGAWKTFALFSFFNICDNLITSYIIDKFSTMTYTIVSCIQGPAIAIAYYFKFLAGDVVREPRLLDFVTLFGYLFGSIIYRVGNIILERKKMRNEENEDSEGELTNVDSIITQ

UniProt Q8IC05 = molecular target: UniProt Q8IC05
UniProt Q8ID33 = molecular target: UniProt Q8ID33
UniProt Q8IDT0 = molecular target: UniProt Q8IDT0
UniProt Q8IE20 = molecular target: UniProt Q8IE20
UniProt Q8IE82 = molecular target: UniProt Q8IE82
UniProt Q8IHU0 = molecular target: UniProt Q8IHU0
UniProt Q8II53 = molecular target: UniProt Q8II53
UniProt Q8IIJ4 = molecular target: UniProt Q8IIJ4
UniProt Q8IIL5 = molecular target: UniProt Q8IIL5
UniProt Q8IIQ6 = molecular target: UniProt Q8IIQ6
UniProt Q8IJA0 = molecular target: UniProt Q8IJA0
UniProt Q8IJN3 = molecular target: UniProt Q8IJN3
UniProt Q8IJQ9 = molecular target: UniProt Q8IJQ9
UniProt Q8IJT1 = molecular target: UniProt Q8IJT1
UniProt Q8IKA0 = molecular target: UniProt Q8IKA0
UniProt Q8ILC1 = molecular target: UniProt Q8ILC1
Chain of UniProt Q8ILC1 (Q8ILC1 whole entry): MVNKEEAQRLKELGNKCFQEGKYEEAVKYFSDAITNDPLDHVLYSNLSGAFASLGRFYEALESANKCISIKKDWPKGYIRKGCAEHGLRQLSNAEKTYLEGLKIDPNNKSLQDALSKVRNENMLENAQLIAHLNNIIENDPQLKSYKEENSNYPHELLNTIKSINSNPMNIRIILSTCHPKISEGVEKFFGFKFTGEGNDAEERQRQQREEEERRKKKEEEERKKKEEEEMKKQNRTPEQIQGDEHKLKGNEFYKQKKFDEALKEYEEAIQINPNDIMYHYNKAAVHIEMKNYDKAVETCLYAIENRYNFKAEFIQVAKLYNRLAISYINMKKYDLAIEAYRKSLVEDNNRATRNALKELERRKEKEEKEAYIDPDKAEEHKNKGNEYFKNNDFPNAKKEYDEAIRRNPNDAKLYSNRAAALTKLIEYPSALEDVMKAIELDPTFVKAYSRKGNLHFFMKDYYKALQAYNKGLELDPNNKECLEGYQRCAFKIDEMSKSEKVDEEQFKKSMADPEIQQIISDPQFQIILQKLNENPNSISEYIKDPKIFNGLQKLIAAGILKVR

UniProt Q8ILF0 = molecular target: UniProt Q8ILF0
UniProt Q8ILP6 = molecular target: UniProt Q8ILP6
UniProt Q8ILY9 = molecular target: UniProt Q8ILY9
UniProt Q9U0K8 = molecular target: UniProt Q9U0K8
UniProt Q9U0N4 = molecular target: UniProt Q9U0N4
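Note: native unpurified kinases from lysate captured on beads bearing immobilized kinase inhibitors, with bead-bound kinases quantified by mass spectrometry across compound doses.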

SMILES: O=c1[nH]c2ccc(Cl)cc2c(NC2CN3CCC2CC3)c1-c1nc2ccccc2[nH]1 (stereo unspecified) [CHIR-124]
- IC50 (UniProt C6KSV4): > 20 µM
- IC50 (UniProt C6KSX2): > 20 µM
- IC50 (UniProt C6KSY6): > 20 µM
- IC50 (UniProt C6KT34): > 20 µM
- IC50 (UniProt C6KT56): > 20 µM
- IC50 (UniProt O77375): > 20 µM
- IC50 (UniProt O96203): > 20 µM
- IC50 (UniProt O96221): > 20 µM
- IC50 (UniProt O97240): > 20 µM
- IC50 (UniProt O97266): > 20 µM
- IC50 (UniProt O97284): > 20 µM
- IC50 (UniProt P61074): > 20 µM
- IC50 (UniProt Q7KQM0): > 20 µM
- IC50 (UniProt Q8I1S0): > 20 µM
- IC50 (UniProt Q8I1X5): > 20 µM
- IC50 (UniProt Q8I231): > 20 µM
- IC50 (UniProt Q8I2F2): > 20 µM
- IC50 (UniProt Q8I2I8): > 20 µM
- IC50 (UniProt Q8I388): > 20 µM
- IC50 (UniProt Q8I3F0): > 20 µM
- IC50 (UniProt Q8I3I6): > 20 µM
- IC50 (UniProt Q8I3Z5): > 20 µM
- IC50 (UniProt Q8I415): > 20 µM
- IC50 (UniProt Q8I4R5): > 20 µM
- IC50 (UniProt Q8I4V8): > 20 µM
- IC50 (UniProt Q8I4Z4): > 20 µM
- IC50 (UniProt Q8I501): > 20 µM
- IC50 (UniProt Q8I5T4): > 20 µM
- IC50 (UniProt Q8IAU3): > 20 µM
- IC50 (UniProt Q8IBZ9): > 20 µM
- IC50 (UniProt Q8IC05): > 20 µM
- IC50 (UniProt Q8ID33): > 20 µM
- IC50 (UniProt Q8IDT0): > 20 µM
- IC50 (UniProt Q8IE20): > 20 µM
- IC50 (UniProt Q8IE82): > 20 µM
- IC50 (UniProt Q8IHU0): > 20 µM
- IC50 (UniProt Q8II53): > 20 µM
- IC50 (UniProt Q8IIJ4): > 20 µM
- IC50 (UniProt Q8IIL5): > 20 µM
- IC50 (UniProt Q8IIQ6): > 20 µM
- IC50 (UniProt Q8IJA0): > 20 µM
- IC50 (UniProt Q8IJN3): > 20 µM
- IC50 (UniProt Q8IJQ9): > 20 µM
- IC50 (UniProt Q8IJT1): > 20 µM
- IC50 (UniProt Q8IKA0): > 20 µM
- IC50 (UniProt Q8ILC1): > 20 µM
- IC50 (UniProt Q8ILF0): > 20 µM
- IC50 (UniProt Q8ILP6): > 20 µM
- IC50 (UniProt Q8ILY9): > 20 µM
- IC50 (UniProt Q9U0K8): 5.2 µM
- IC50 (UniProt Q9U0N4): > 20 µM

— the supplement of paper PMC13386468
